ChEMBL document CHEMBL1125990, “Synthesis of novel 1-nitrogen replaced carbocyclic thymidine analogs as potential anti aids agents” (Bioorg Med Chem Lett, 1991)
Activity calls are given as the source filed them. The calls are words filed in the database; no cut-off is given here.

test system: Human immunodeficiency virus 1; test: Tested for activity against HIV in cell culture at concentration of 100 ug/mL; NA denotes no activity; format: functional, organism-based

Row | Compound | Activity
1 | Cc1cn(N2CC(CO)C(N=[N+]=[N-])C2)c(=O)[nH]c1=O (stereo not drawn) | inactive
2 | Cc1cn(N2CC(O)C(CO)C2)c(=O)[nH]c1=O (stereo not drawn) | inactive
3 | Cc1cn(N2CC(F)C(CO)C2)c(=O)[nH]c1=O (stereo not drawn) | inactive
